Results from patent publication US20230270745A1 (Seagen Inc., priority 2020, published 2023).

How the values were obtained:
[1] = test system: GXA 3039 HER2 positive gastric cancer PDX model; assay: GXA 3039 gastric cancer PDX model, tumor growth inhibition; type: in vivo, Mice; details: study day 29; tucatinib 50 mg/kg orally twice per day, trastuzumab 20 mg/kg intraperitoneally once every three days
Protocol: (§1) The TGI index is calculated for a particular time point (e.g., a specific number of days into an experiment or clinical trial) according to the following formula: […]
(§2) where “Tx Day 0” denotes the first day that treatment is administered (i.e., the first day that an experimental therapy or a control therapy (e.g., vehicle only) is administered) and “Tx Day X” denotes X number of days after Day 0. […] As a non-limiting example, in an experiment where study day 0 corresponds to “Tx Day 0” and the TGI index is calculated on study day 28 (i.e., “Tx Day 28”), if the mean tumor volume in both groups on study day 0 is 250 mm^3 and the mean tumor volumes in the experimental and control groups are 125 mm^3 and 750 mm^3, respectively, then the TGI index on day 28 is 125%.
(§3) Tucatinib was administered orally at a dose of 50 mg/kg twice per day for 28 days (study days 0-27). […] A vehicle-only group was included as a negative control.

[2] = test system: Calu-3 NSCLC xenograft model; assay: Calu-3 NSCLC xenograft model, tumor growth inhibition; type: in vivo, Mice; details: study day 28; tucatinib 50 mg/kg orally twice per day for 21 days, trastuzumab 20 mg/kg intraperitoneally once every three days, from study day 7
Protocol: as §1, §2
(§4) For the Calu-3 study, tucatinib was administered orally at a dose of 50 mg/kg twice per day for 21 days, beginning on study day 7. […] A vehicle-only group was included as a negative control.

[3] = test system: GXA 3054 HER2 positive gastric cancer PDX model; assay: GXA 3054 gastric cancer PDX model, tumor growth inhibition; type: in vivo, Mice; details: study day 17; tucatinib 50 mg/kg orally twice per day, trastuzumab 20 mg/kg intraperitoneally once every three days
Protocol: as §1, §2, §3

[4] = test system: GXA 3038 HER2 positive gastric cancer PDX model; assay: GXA 3038 gastric cancer PDX model, tumor growth inhibition; type: in vivo, Mice; details: study day 28; tucatinib 50 mg/kg orally twice per day, trastuzumab 20 mg/kg intraperitoneally once every three days
Protocol: as §1, §2, §3

[5] = test system: NCI-H2170 cells; assay: Response of NCI-H2170 cells to tucatinib in vitro; type: cell-based; details: previously demonstrated
[6] = test system: CTG-0383 HER2 positive CRC PDX model; assay: CTG-0383 CRC PDX model, tumor growth inhibition; type: in vivo, Mice; details: study day 29; tucatinib 50 mg/kg orally twice per day, trastuzumab 20 mg/kg intraperitoneally once every three days
Protocol: as §1, §2, §3

[7] = test system: NCI-H2170 NSCLC xenograft model; assay: NCI-H2170 NSCLC xenograft model, tumor growth inhibition; type: in vivo, Mice; details: study day 39; tucatinib 50 mg/kg orally twice per day for 21 days, trastuzumab 20 mg/kg intraperitoneally twice per week, from study day 18
Protocol: as §1, §2, §4
For the NCI-H2170 study, tucatinib was administered orally at a dose of 50 mg/kg twice per day for 21 days, beginning on study day 18. […] A vehicle-only group was included as a negative control.

[8] = test system: CTG-0137 HER2 positive esophageal cancer PDX model; assay: CTG-0137 esophageal cancer PDX model, tumor growth inhibition; type: in vivo, Mice; details: study day 15; tucatinib 50 mg/kg orally twice per day, trastuzumab 20 mg/kg intraperitoneally once every three days
Protocol: as §1, §2, §3

[9] = test system: CTG-0784 HER2 positive CRC PDX model; assay: CTG-0784 CRC PDX model, tumor growth inhibition; type: in vivo, Mice; details: study day 29; tucatinib 50 mg/kg orally twice per day, trastuzumab 20 mg/kg intraperitoneally once every three days
Protocol: as §1, §2, §3

[10] = test system: Calu-3 cells; assay: Response of Calu-3 cells to tucatinib in vitro; type: cell-based; details: previously demonstrated
[11] = test system: CTG-0121 HER2 positive CRC PDX model; assay: CTG-0121 CRC PDX model, tumor growth inhibition; type: in vivo, Mice; details: study day 29; tucatinib 50 mg/kg orally twice per day, trastuzumab 20 mg/kg intraperitoneally once every three days
Protocol: as §1, §2, §3

[12] = test system: CTG-0138 HER2 positive esophageal cancer PDX model; assay: CTG-0138 esophageal cancer PDX model, tumor growth inhibition; type: in vivo, Mice; details: study day 30; tucatinib 50 mg/kg orally twice per day, trastuzumab 20 mg/kg intraperitoneally once every three days
Protocol: as §1, §2, §3

[13] = test system: CTG-0927 HER2 positive cholangiocarcinoma PDX model; assay: CTG-0927 cholangiocarcinoma PDX model, tumor growth inhibition; type: in vivo, Mice; details: study day 28; tucatinib 50 mg/kg orally twice per day, trastuzumab 20 mg/kg intraperitoneally once every three days
Protocol: as §1, §2, §3

Cc1cc(Nc2ncnc3ccc(NC4=NC(C)(C)CO4)cc23)ccc1Oc1ccn2ncnc2c1 [Tucatinib, tucatinib]
Observed TGI (tumor growth inhibition index) [1]: 48%
Observed TGI (tumor growth inhibition index) [2]: 63%
Observed TGI (tumor growth inhibition index) [3]: 65%
Observed TGI (tumor growth inhibition index) [4]: 110%
Response to tucatinib in vitro [5]: good responses
Observed TGI (tumor growth inhibition index) [6]: 117%
Observed TGI (tumor growth inhibition index) [7]: 91%
Observed TGI (tumor growth inhibition index) [8]: 49%
Observed TGI (tumor growth inhibition index) [9]: 50%
Response to tucatinib in vitro [10]: good responses
Observed TGI (tumor growth inhibition index) [11]: 104%
Observed TGI (tumor growth inhibition index) [12]: 69%
Observed TGI (tumor growth inhibition index) [13]: 48%
